Read-outs that look alike come from different tables or passages of the source.
Tests used:
[1] = test system: Zymoseptoria tritici; experiment: Leaf Blotch of Wheat (SEPTTR) fungicidal activity; type: in vivo; conditions: wheat leaf blotch; for pest or weed control at 100 ppm: High Volume application; for pest or weed control at 121.5 g/ha: Low Volume application, 121.5 g/H
In short: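 Wheat seedlings (Yuma, first leaf emerged) were sprayed to run-off with compound in acetone/water containing Triton X-100 and inoculated with Z. tritici spores before or after treatment. Percent disease control comes from 0–100% severity on treated versus untreated plants.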

[2] = test system: Puccinia triticina; experiment: Wheat Brown Rust (PUCCRT) fungicidal activity; type: in vivo; conditions: for pest or weed control at 100 ppm: High Volume application; for pest or weed control at 121.5 g/ha: Low Volume application, 121.5 g/H
In short: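 Yuma wheat seedlings at first-leaf stage sprayed to run-off with acetone/water (Triton X-100) solutions, inoculated with P. triticina spores before or after treatment. Overnight dark dew at 22° C, then greenhouse at 24° C; percent disease control from severity versus untreated plants.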

[3] = 24 h, 1 day protectant, read-out: SEPTTR disease control, 1DP (1 Day Protectant)
[4] = 72 h, 3 day curative, read-out: SEPTTR disease control, 3DC (3 Day Curative)
[5] = 24 h, 1 day protectant, read-out: PUCCRT disease control, 1DP (1 Day Protectant)
[6] = 72 h, 3 day curative, read-out: PUCCRT disease control, 3DC (3 Day Curative)

Row | Compound | pest or weed control at 100 ppm [1, 3] | pest or weed control at 100 ppm [1, 4] | pest or weed control at 100 ppm [2, 5] | pest or weed control at 100 ppm [2, 6] | pest or weed control at 121.5 g/ha [1, 3] | pest or weed control at 121.5 g/ha [1, 4] | pest or weed control at 121.5 g/ha [2, 5] | pest or weed control at 121.5 g/ha [2, 6]
1 | CCCCO[C@H]1CCOC[C@H](NC(=O)c2nccc(OC)c2O)C(=O)O[C@@H](C)[C@@H]1OCc1ccccc1 [Compound 82] | < 80% | > 80% | > 80% | > 80% | – | – | – | –
2 | COc1ccnc(C(=O)N[C@H]2CCCC[C@H](CC3CCCC3)[C@@H](OC(=O)C(C)C)[C@H](C)OC2=O)c1OC(C)=O [Compound 56, (2S,3R,4R,9S)-9-(3-acetoxy-4-methoxypicolinamido)-4-(cyclopentylmethyl)-2-methyl-10-oxooxecan-3-yl isobutyrate] | – | – | – | – | > 80% | < 80% | > 80% | < 80%
3 | CCCCO[C@H]1CCOC[C@H](NC(=O)c2nccc(OC)c2O)C(=O)O[C@@H](C)[C@@H]1OC(=O)C1CC1 [Compound 85] | < 80% | > 80% | > 80% | > 80% | – | – | – | –
4 | COc1ccnc(C(=O)N[C@H]2CCOC[C@H](Cc3ccccc3)[C@@H](OCC(C)C)[C@H](C)OC2=O)c1OCOC(C)=O [Compound 16] | > 80% | < 80% | > 80% | > 80% | < 80% | < 80% | > 80% | < 80%
5 | CCC[C@H]1CCCC[C@H](NC(=O)c2nccc(OC)c2OCOC(C)=O)C(=O)O[C@@H](C)[C@@H]1OCC(C)C [compound 30, ((2-(((3S,8S,9R,10S)-9-isobutoxy-10-methyl-2-oxo-8-propyloxecan-3-yl)carbamoyl)-4-methoxypyridin-3-yl)oxy)methyl acetate] | – | – | – | – | < 80% | < 80% | > 80% | < 80%
6 | COc1ccnc(C(=O)N[C@H]2COCC[C@H](Cc3ccc(F)cc3)[C@@H](Oc3ccccc3)[C@H](C)OC2=O)c1OC(C)=O [Compound 71] | – | – | – | – | > 80% | > 80% | > 80% | > 80%
7 | COc1ccnc(C(=O)N[C@H]2CCOC[C@H](OC)[C@@H](Oc3ccccc3)[C@H](C)OC2=O)c1OC(C)=O [Compound 48] | – | – | – | – | > 80% | > 80% | > 80% | > 80%
8 | COc1ccc(C[C@H]2CCOC[C@H](NC(=O)c3nccc(OC)c3OCOC(C)=O)C(=O)O[C@@H](C)[C@@H]2Oc2ccccc2)cc1 [Compound 66] | – | – | – | – | > 80% | > 80% | > 80% | < 80%
9 | COc1ccnc(C(=O)N[C@H]2CCCC[C@H](OCc3ccccc3)[C@@H](OCc3ccccc3)[C@H](C)OC2=O)c1OC(C)=O [Compound 9] | > 80% | < 80% | > 80% | > 80% | > 80% | > 80% | > 80% | < 80%
10 | COc1ccnc(C(=O)N[C@H]2CCCC[C@H](OCc3ccccc3)[C@@H](OCc3ccccc3)[C@H](C)OC2=O)c1OCOC(C)=O [Compound 8] | > 80% | < 80% | > 80% | > 80% | > 80% | > 80% | > 80% | > 80%
11 | COc1ccnc(C(=O)N[C@H]2CCCC[C@H](Oc3ccccc3)[C@@H](Oc3ccccc3)[C@H](C)OC2=O)c1O [Compound 98] | > 80% | < 80% | > 80% | < 80% | – | – | – | –
12 | COc1ccnc(C(=O)N[C@H]2CCCC[C@H](OC)[C@@H](OC)[C@H](C)OC2=O)c1OCOC(C)=O [Compound 22] | – | – | – | – | – | < 80% | > 80% | > 80%
13 | COc1ccnc(C(=O)N[C@H]2CCOC[C@H](OC)[C@@H](Oc3ccccc3)[C@H](C)OC2=O)c1OCOC(C)=O [Compound 40] | – | – | – | – | > 80% | > 80% | > 80% | > 80%
14 | CCCO[C@H]1COCC[C@H](NC(=O)c2nccc(OC)c2O)C(=O)O[C@@H](C)[C@@H]1Oc1ccccc1 [Compound 114] | > 80% | > 80% | > 80% | > 80% | – | – | – | –
15 | CCCCO[C@H]1CCOC[C@H](NC(=O)c2nccc(OC)c2OCOC(C)=O)C(=O)O[C@@H](C)[C@@H]1OCC(C)C [Compound 7] | > 80% | < 80% | > 80% | > 80% | – | – | – | –
16 | COc1ccnc(C(=O)N[C@H]2CCCC[C@H](OC)[C@@H](OCC(C)C)[C@H](C)OC2=O)c1OC(C)=O [Compound 28] | – | – | – | – | < 80% | > 80% | > 80% | > 80%
17 | COc1ccc(C[C@H]2CCOC[C@H](NC(=O)c3nccc(OC)c3O)C(=O)O[C@@H](C)[C@@H]2Oc2ccccc2)cc1 [Compound 129] | > 80% | – | > 80% | > 80% | – | – | – | –
18 | COc1ccnc(C(=O)N[C@H]2COCC[C@H](OCC(C)C)[C@@H](OCC(C)C)[C@H](C)OC2=O)c1O [Compound 86] | < 80% | > 80% | > 80% | < 80% | – | – | – | –
19 | CCCO[C@H]1[C@H](C)OC(=O)[C@@H](NC(=O)c2nccc(OC)c2OCOC(C)=O)CCOC[C@@H]1Oc1ccccc1 [Compound 42] | – | – | – | – | < 80% | < 80% | > 80% | < 80%
20 | COc1ccnc(C(=O)N[C@H]2COCC[C@H](Cc3ccc(F)cc3)[C@@H](OC(=O)C(C)C)[C@H](C)OC2=O)c1OC(C)=O [Compound 75] | – | – | – | – | > 80% | < 80% | > 80% | > 80%
21 | CC[C@H]1CCOC[C@H](NC(=O)c2nccc(OC)c2O)C(=O)O[C@@H](C)[C@@H]1OC(=O)C1CC1 [Compound 136] | – | < 80% | > 80% | > 80% | – | – | – | –
22 | COc1ccnc(C(=O)N[C@H]2COCC[C@H](Cc3ccc(F)cc3)[C@@H](Oc3ccccc3)[C@H](C)OC2=O)c1OCOC(=O)C(C)C [Compound 73] | – | – | – | – | > 80% | > 80% | > 80% | > 80%
23 | CCCO[C@@H]1[C@@H](CC2CCCC2)CCCC[C@H](NC(=O)c2nccc(OC)c2OCOC(C)=O)C(=O)O[C@H]1C [Compound 57] | – | – | – | – | < 80% | – | > 80% | < 80%
24 | CC[C@H]1CCOC[C@H](NC(=O)c2nccc(OC)c2O)C(=O)O[C@@H](C)[C@@H]1Oc1ccccc1 [Compound 130] | < 80% | > 80% | > 80% | > 80% | – | – | – | –
25 | CCCCCO[C@H]1[C@H](C)OC(=O)[C@@H](NC(=O)c2nccc(OC)c2O)CCCC[C@@H]1OC(=O)c1ccccc1 [Compound 94] | > 80% | < 80% | > 80% | < 80% | – | – | – | –
26 | COc1ccnc(C(=O)N[C@H]2CCCC[C@H](OCc3ccccc3)[C@@H](OCc3ccccc3)[C@H](C)OC2=O)c1O [Compound 88] | > 80% | < 80% | > 80% | – | – | – | – | –
27 | COc1ccnc(C(=O)N[C@H]2CCCC[C@H](Oc3ccccc3)[C@@H](OCC(C)C)[C@H](C)OC2=O)c1OCOC(C)=O [Compound 10] | > 80% | > 80% | > 80% | > 80% | – | – | – | –
28 | COc1ccnc(C(=O)N[C@H]2CCCC[C@H](Oc3ccccc3)[C@@H](Oc3ccccc3)[C@H](C)OC2=O)c1OC(C)=O [Compound 25] | – | – | – | – | > 80% | < 80% | > 80% | < 80%
29 | COc1ccnc(C(=O)N[C@H]2CCCC[C@H](CC3CCCC3)[C@@H](OC)[C@H](C)OC2=O)c1OCOC(C)=O [Compound 61] | – | – | – | – | < 80% | < 80% | > 80% | > 80%
30 | CCOCC(=O)OCOc1c(OC)ccnc1C(=O)N[C@H]1COCC[C@H](Cc2ccc(F)cc2)[C@@H](OCC2CC2)[C@H](C)OC1=O [Compound 78] | – | – | – | – | > 80% | < 80% | > 80% | > 80%

Source: US20180002319A1, “MACROCYCLIC PICOLINAMIDE COMPOUNDS WITH FUNGICIDAL ACTIVITY” (DOW AGROSCIENCES LLC, priority 2014, published 2018)
